Consider 28 compounds from US4526894A, “Pharmaceutically active 4-hydroxy-3-benzoyl-2-quinolone derivatives” (Nippon Shinyaku Co. Ltd., priority 1982, dated 1985).

Structures can show the parent of a compound that is named as a salt. Where two headings read alike, the source gives them in different places.

Data set [1] concerns carrageenin edema in SD-strain rats. As to the kind of experiment: Carrageenin edema at hind foot of rats (anti-inflammatory action). The data set is classed as in vivo, rat. Particulars: for inhibition in vivo at 200 mg/kg: Rattus norvegicus, po, 3 h, read-out: % Inhibition of carrageenin edema. Here is the method:
The anti-inflammatory action of the compounds of the present invention were evaluated by measuring the inhibition against carrageein edema as set forth below.
Carrageenin edema at hind foot of rats:
SD-strain rats of body weights of around 150 grams were used, each group consisting of five rats. A solution (0.1 ml) of 0.5% carrageenin dissolved in physiological saline water was hypodermically injected into right hind foot pat of the rats and, one hour prior to the injection of carrageenin, 200 mg/kg of test compound was given per os. Foot volumes of the rats before the carrageenin treatment and those of three hours after the treatment were measured and the differences were compared with those of the control group to determine the effect of the compounds.

Data set [2] deals with SRS-A (slow reacting substance of anaphylaxis). As to the kind of experiment: Anti-SRS-A action using isolated ileus of guinea pigs. Here is the method:
Anti-SRS-As action (An anti-action against slow reacting substance of anaphylaxis).
Hartley strain male guinea pigs (300 to 350 grams body weight) are killed and 1.0 to 1.5 cm of ileus is immeidiately excised from ileocecal parts and is suspended in 10 ml of Tyrode solution (95% O2 -5% CO2 saturation) containing 10^-7 g/ml of atropine and 10^-6 g/ml of pyrilamine. SRS-A (20 units) (the amount of SRS-A showing the same shrinkage as 5 ng of histamine is defined as 1 unit) prepared by using sensitized guinea pig lung is given to cause shrinkage there. Then antagonistic action of test compounds treated five minutes ago against the shrinkage is measured and recorded via isotonic transducer.
Inhibition Ratio of Test Compd (%)=(1-A'/A)×100
in which A' is a height of shrinkage of SRS-A+test compound and A is that of SRS-A.

Data set [3] has as its system passive cutaneous anaphylaxis (DNP-As antigen) in Wister strain rats. As to the kind of experiment: passive cutaneous anaphylaxis (PCA) assay in rats. Conditions: 10 mg/kg oral, one hour before antigen; for inhibition in vivo at 10 mg/kg: Rattus norvegicus, po, 1 h, read-out: PCA Inhibition Ratio %. The class given is in vivo. The procedure: (i) Antiserum abundant in homocytotropic antibody is prepared by the same method as Tada and Okumura did (cf. Journal of Immunology, vol. 106, page 1002, 1976). Thus, 1 mg (calculated as an amount of protein) of DNP-As (2,4-dinitrophenyl-coupled ascaris extract) prepared by methods of Strejan and Campbell (Journal of Immunology, vol. 98, p. 893, 1971) and of Eisen (Journal of Amer. Chem. Soc., vol. 85, p 4593, 1953) and 1×10^10pertussis vaccine are administered to each paw of Wister strain rats (180 to 200 grams body weights) by dividing the dose by four. Five days later, 0.5 mg of DNP-As is administered into muscle of back. Eight days later from the initial immunization, blood is taken from descending aorta under anesthetizing with ether, the resulting serum is stored at -80° and is melted before use.
(ii) Effect of tested compounds is investigated as follows:
Anti-serum obtained by the method (i) is diluted with physiological saline solution double by double successively and 0.05 ml of each diluted solution is administered into back of Wister strain rats (140 to 160 grams body weight) subcutaneously. After 72 hours, a solution of 2 mg (calculated as protein) of DNP-As and 2.5 mg of Evans Blue dissolved in 1 ml of physiological saline solution is administered intraveously at a dose of 5 ml/kg. After 30 minutes from antigen solution administration, the animals are killed and diameters of blue spots appeared at the place where antiserum is administered are measured. The PCA test is conducted by the same method as already described using a diluted solutions of antiserum which always show 10 mm or more of spot diameters and the effect of the test compounds is judged. Thus antiserum diluted solutions are administered to two places in back. Test compounds are administered orally at the dose of 10 mg/kg one hour before administration of antigen solution. From the skin of reacted parts of killed animals, leaked or emitted dyestuff is extracted and the amount of the dyestuff is measured. The inhibition ratio is calculated by the following expression:
Inhibition Ratio=(1-A'/A)×100
in which A' is an amount of dyestuff in the group treated with the test compounds and A is that in the control group.

For data set [4], the system named is male mice. As to the kind of experiment: Acute oral toxicity in mice (lethal ratio). The data set is classed as in vivo. Particulars: 400 mg/kg oral, two weeks, four mice per group. Here is the method:
Acute toxicity was determined two weeks after oral administration of 400 mg/kg to male mice. Four mice (denominator) are used in each group and the dead numbers are given as the numerator. The compounds of the present invention show little, if any, toxicity.
Lethal ratios for all other compounds are 0/4 at doses of […]. It is therefore apparent that they are all safe compounds.

Where [5] appears, read: 200 mg/kg per os one hour before carrageenin, 3 hours after.
[6] abbreviates: 10^-6 M; guinea pig ileus, SRS-A 20 units; 5 min, 1 µM.

As for `CC(=O)Oc1ccccc1C(=O)O` [Acetylsalicylic Acid, reference compound], the inhibition in vivo at 200 mg/kg in data set [1] turned out to be 31.6%.

In the case of `O=C(c1ccccc1)c1c(O)c2cc(Cl)ccc2[nH]c1=O` [Example 1, 3-Benzoyl-6-chloro-4-hydroxy-2-quinolone], the inhibition in vivo at 200 mg/kg in data set [1] (setting [5]) is 42.1%.

As to `COc1ccc(C(=O)c2c(O)c3ccccc3[nH]c2=O)cc1OC` [Example 2, 3-(3,4-Dimethoxybenzoyl)-4-hydroxy-2-quinolone], the “SRS-A Inhibition Ratio %” value in data set [2] (setting [6]) amounted to 24.2%. In addition, the inhibition in vivo at 10 mg/kg in data set [3] was 25.5%.

For the compound `COC(=O)c1cccc2[nH]c(=O)c(C(=O)c3ccccc3)c(O)c12` [Example 3, Methyl 3-benzoyl-4-hydroxy-2-quinolone-5-carboxylate], the inhibition in vivo at 200 mg/kg in data set [1] (setting [5]) came to 32.8%. The “SRS-A Inhibition Ratio %” value in data set [2] (setting [6]) came out at 26.4%. Further, the inhibition in vivo at 10 mg/kg in data set [3] amounted to 26.9%.

As for `CC(C)c1ccc2[nH]c(=O)c(C(=O)c3ccccc3)c(O)c2c1` [Example 5, 3-Benzoyl-4-hydroxy-6-isopropyl-2-quinoline], the inhibition in vivo at 200 mg/kg in data set [1] (setting [5]) was 32.1%.

In the case of `CCCCCCc1ccc2[nH]c(=O)c(C(=O)c3ccccc3)c(O)c2c1` [Example 7, 3-Benzoyl-6-n-hexyl-4-hydroxy-2-quinolone sodium salt], in data set [2] (10^-6 M, guinea pig ileus, SRS-A 20 units, 5 min, 1 µM, sodium salt), the “SRS-A Inhibition Ratio %” value turned out to be 91.2%. Further, in data set [3] (rat, sodium salt, 10 mg/kg), the “PCA Inhibition Ratio %” value is on record as 15.2%.

Take `O=C(c1ccccc1)c1c(O)c2ccc([N+](=O)[O-])cc2[nH]c1=O` [Example 10, 3-benzoyl-4-hydroxy-7-nitro-2-quinolone]: the “Lethal Ratio (dead/treated)” value in data set [4] is listed as 0/4. Also, in data set [2] (setting [6]), the “SRS-A Inhibition Ratio %” value was 22.3%. For the same compound, the inhibition in vivo at 10 mg/kg in data set [3] amounted to 33.4%.

With `COC(=O)c1cccc2c(O)c(C(=O)c3ccccc3)c(=O)[nH]c12` [Example 13], in data set [4], the “Lethal Ratio (dead/treated)” value is 1/4. For the same compound, the “SRS-A Inhibition Ratio %” value in data set [2] (setting [6]) was found to be 19.8%. The inhibition in vivo at 10 mg/kg in data set [3] came to 25.7%.

`Cc1ccc2[nH]c(=O)c(C(=O)c3ccccc3)c(O)c2c1` [Example 17, 3-benzoyl-4-hydroxy-6-methyl-2-quinolone]: in data set [2] (setting [6]), the “SRS-A Inhibition Ratio %” value was 21.9%. Moreover, in data set [3], the inhibition in vivo at 10 mg/kg came out at 35.4%.

With `Cc1ccc2c(O)c(C(=O)c3ccccc3)c(=O)[nH]c2c1` [Example 18, 3-benzoyl-4-hydroxy-7-methyl-2-quinolone], in data set [2] (setting [6]), the “SRS-A Inhibition Ratio %” value was 21.3%. Besides, the inhibition in vivo at 10 mg/kg in data set [3] turned out to be 26%.

As to `Cc1cc2[nH]c(=O)c(C(=O)c3ccccc3)c(O)c2cc1C` [Example 20, 3,-benzoyl-6,7-dimethyl-4-hydroxy-2-quinolone], in data set [2] (setting [6]), the “SRS-A Inhibition Ratio %” value is 23.5%. Also, the inhibition in vivo at 10 mg/kg in data set [3] was determined as 17.4%.

Take `CCCCc1ccc2[nH]c(=O)c(C(=O)c3ccccc3)c(O)c2c1` [Example 22, 3-benzoy-6-n-butyl-4-hydroxy-2-quinolone]: the “SRS-A Inhibition Ratio %” value in data set [2] (setting [6]) was found to be 39.5%. In addition, the inhibition in vivo at 10 mg/kg in data set [3] is 17.4%.

Take `COc1ccccc1C(=O)c1c(O)c2ccccc2[nH]c1=O` [Example 24, 4-hydroxy-3-(2-methoxybenzoyl)-2-quinolone]: in data set [2] (setting [6]), the “SRS-A Inhibition Ratio %” value was 20.2%. Moreover, the inhibition in vivo at 10 mg/kg in data set [3] came to 24.7%.

`COc1ccc(C(=O)c2c(O)c3ccccc3[nH]c2=O)c(OC)c1` [Example 28, 3-(2,4-dimethoxybenzoyl)-4-hydroxy-2-quinolone]: the “SRS-A Inhibition Ratio %” value in data set [2] (setting [6]) is given as 42.9%. Also, the inhibition in vivo at 10 mg/kg in data set [3] is 21.2%.

As for `COc1ccc(C(=O)c2c(O)c3cc(C)ccc3[nH]c2=O)cc1OC` [Example 29, 3-(3,4-dimethoxybenzoyl)-4-hydroxy-6-methyl-2-quinolone], the “SRS-A Inhibition Ratio %” value in data set [2] (setting [6]) is 42.1%. The inhibition in vivo at 10 mg/kg in data set [3] was determined as 12.1%.

As to `COc1ccc(C(=O)c2c(O)c3ccc([N+](=O)[O-])cc3[nH]c2=O)cc1OC` [Example 30, 3-(3,4-dimethoxybenzoyl)-4-hydroxy-7-nitro-2-quinolone], the inhibition in vivo at 200 mg/kg in data set [1] (setting [5]) was 21.3%. For the same compound, the “SRS-A Inhibition Ratio %” value in data set [2] (setting [6]) was 26.7%. Further, the inhibition in vivo at 10 mg/kg in data set [3] was determined as 18.7%.

In the case of `COc1ccc(C(=O)c2c(O)c3cccc(C)c3[nH]c2=O)cc1OC` [Example 31, 3-(3,4-dimethoxybenzoyl)-4-hydroxy-8-methyl-2-quinolone], in data set [1] (setting [5]), the inhibition in vivo at 200 mg/kg stood at 77.5%. In data set [2] (setting [6]), the “SRS-A Inhibition Ratio %” value worked out at 20.5%. The inhibition in vivo at 10 mg/kg in data set [3] turned out to be 20.4%.

In the case of `CC(C)c1ccc2[nH]c(=O)c(C(=O)c3ccccc3Cl)c(O)c2c1` [Example 36, 3-(2-chlorobenzoyl)-4-hydroxy-6-isopropyl-2-quinolone], the “SRS-A Inhibition Ratio %” value in data set [2] (setting [6]) was found to be 60.0%. In addition, in data set [3], the inhibition in vivo at 10 mg/kg was found to be 12.4%.

Take `Cc1cc(C)c2[nH]c(=O)c(C(=O)c3ccccc3Cl)c(O)c2c1` [Example 37, 3-(2-chlorobenzoyl)-6,8-dimethyl-4-hydroxy-2-quinolone]: the “SRS-A Inhibition Ratio %” value in data set [2] (setting [6]) is recorded as 28.3%. Also, the inhibition in vivo at 10 mg/kg in data set [3] amounted to 20.8%.

Consider `O=C(c1ccc(Cl)cc1)c1c(O)c2ccccc2[nH]c1=O` [Example 39, 3-(4-chlorobenzoyl)-4-hydroxy-2-quinolone], for which the “SRS-A Inhibition Ratio %” value in data set [2] (setting [6]) is 27.0%. In addition, the inhibition in vivo at 10 mg/kg in data set [3] is 19.8%.

Turning to `Cc1ccc(C(=O)c2c(O)c3ccccc3[nH]c2=O)c(C)c1` [Example 43, 3-(2,4-dimethylbenzoyl)-4-hydroxy-2-quinolone], in data set [1] (setting [5]), the inhibition in vivo at 200 mg/kg amounted to 15.7%.

Consider `O=C(c1cccc(C(F)(F)F)c1)c1c(O)c2ccccc2[nH]c1=O` [Example 44, 4-hydroxy-3-(3-trifluoromethylbenzoyl)-2-quinolone], for which the inhibition in vivo at 200 mg/kg in data set [1] (setting [5]) was 15.9%.

In the case of `CCCCCc1ccc(C(=O)c2c(O)c3ccccc3[nH]c2=O)cc1` [Example 46, 4-hydroxy-3-(4-n-pentylbenzoyl)-2-quinolone], the “SRS-A Inhibition Ratio %” value in data set [2] (setting [6]) came out at 26.9%. For the same compound, the inhibition in vivo at 10 mg/kg in data set [3] came to 3.2%.

In the case of `CC(C)c1ccc2[nH]c(=O)c(C(=O)c3ccc([N+](=O)[O-])cc3)c(O)c2c1` [Example 48, 4-hydroxy-6-isopropyl-3-(4-nitrobenzoyl)-2-quinolone], in data set [1] (setting [5]), the inhibition in vivo at 200 mg/kg was found to be 12.5%. For the same compound, the inhibition in vivo at 10 mg/kg in data set [3] is 8.6%.

Take `O=C(O)c1ccc(C(=O)c2c(O)c3ccccc3[nH]c2=O)cc1` [Example 51, 3-(4-carboxybenzoyl)-4-hydroxy-2-quinolone]: the “SRS-A Inhibition Ratio %” value in data set [2] (setting [6]) is recorded as 50.0%. In data set [3], the inhibition in vivo at 10 mg/kg stood at 7.4%.

With `COc1ccc(C(=O)c2c(O)c3ccc([N+](=O)[O-])cc3[nH]c2=O)c(OC)c1OC` [Example 54, 4-hydroxy-7-nitro-3-(2,3,4-trimethoxybenzoyl)-2-quinolone], the inhibition in vivo at 200 mg/kg in data set [1] (setting [5]) was 13.1%.

With `CCCCCCc1ccc2[nH]c(=O)c(C(=O)c3ccccc3)c(O)c2c1` [Example 55], in data set [1] (setting [5]), the “% Inhibition of carrageenin edema” value was 10.0%. Also, the “SRS-A Inhibition Ratio %” value in data set [2] (10^-6 M, guinea pig ileus, SRS-A 20 units, 5 min, 1 µM) is 85.6%. In addition, the inhibition in vivo at 10 mg/kg in data set [3] is 13.6%.

Turning to `CCCCCCc1ccc2[nH]c(=O)c(C(=O)c3ccc(OC)cc3)c(O)c2c1` [Example 59], the inhibition in vivo at 200 mg/kg in data set [1] (setting [5]) worked out at 12.8%.
